The structures appear in SMILES notation.

This test addresses T1, Human Neutrophil Elastase (HNE) (Homo sapiens, UniProt P08246).
T1 construct: Human Neutrophil Elastase (HNE) purified from serum (Calbiochem art. 324681); purchased Calbiochem 324681; host or cells: purified from human material ('serum' in the source)
T1 sequence (P08246 30-247 limits assumed): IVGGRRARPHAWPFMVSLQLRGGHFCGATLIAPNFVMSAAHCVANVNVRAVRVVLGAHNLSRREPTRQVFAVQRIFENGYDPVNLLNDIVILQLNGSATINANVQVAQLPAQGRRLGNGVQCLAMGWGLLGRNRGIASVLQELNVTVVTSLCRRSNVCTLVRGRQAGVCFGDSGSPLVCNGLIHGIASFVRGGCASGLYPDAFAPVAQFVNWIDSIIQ
Briefly: Human Neutrophil Elastase Quenched-FRET Assay. Conditions: HNE 1.7 nM, substrate MeOSuc-AAPV-AMC 100 μM, 15 min preincubation, 30 min incubation at room temperature; read-out: Inhibition of Human Neutrophil Elastase IC50. The class given is biochemical. As to the method: Human Neutrophil Elastase Quenched-FRET Assay
The assay uses Human Neutrophil Elastase (HNE) purified from serum (Calbiochem art. 324681; Ref. Baugh, R. J. et al., 1976, Biochemistry. 15, 836-841). HNE was stored in 50 mM sodium acetate (NaOAc), 200 mM sodium chloride (NaCl), pH 5.5 with added 30% glycerol at −20° C. The protease substrate used was Elastase Substrate V Fluorogenic, MeOSuc-AAPV-AMC (Calbiochem art. 324740; Ref. Castillo, M. J. et al., 1979, Anal. Biochem. 99, 53-64). The substrate was stored in dimethyl sulphoxide (DMSO) at −20° C. The assay additions were as follows: Test compounds and controls were added to black 96-well flat-bottom plates (Greiner 655076), 1 μL in 100% DMSO, followed by 30 μL HNE in assay buffer with 0.01% Triton (trade mark) X-100 detergent. The assay buffer constitution was: 100 mM Tris(hydroxymethyl)aminomethane (TRIS) (pH 7.5) and 500 mM NaCl. The enzyme and the compounds were incubated at room temperature for 15 minutes. Then 30 μl substrate in assay buffer was added. The assay was incubated for 30 minutes at room temperature. The concentrations of HNE enzyme and substrate during the incubation were 1.7 nM and 100 μM, respectively. The assay was then stopped by adding 60 μl stop solution (140 mM acetic acid, 200 mM sodium monochloroacetate, 60 mM sodium acetate, pH 4.3). Fluorescence was measured on a Wallac 1420 Victor 2 instrument at settings: Excitation 380 nm, Emission 460 nm. IC50 values were determined using Xlfit curve fitting using model 205.
A word on the IC50: it is the concentration that gives 50% inhibition. On to `Cc1c(-c2ccnn2-c2ccc(C#N)cc2)nc(C(=O)NCc2ccc(S(C)(=O)=O)cn2)c(=O)n1-c1cccc(C(F)(F)F)c1` [Example 2, 6-[2-(4-Cyano-phenyl)-2H-pyrazol-3-yl]-5-methyl-3-oxo-4-(3-trifluoromethyl-phenyl)-3,4-dihydro-pyrazine-2-carboxylic acid (5-methanesulfonyl-pyridin-2-ylmethyl)-amide], for which the half-maximal inhibitory concentration (IC50) is 0.32 nM.
Regarding `CNC(=O)c1nc(-c2ccnn2-c2ccc(C#N)cc2)c(C)n(-c2cccc(C(F)(F)F)c2)c1=O` [Example 1, 6-[2-(4-Cyano-phenyl)-2H-pyrazol-3-yl]-5-methyl-3-oxo-4-(3-trifluoromethyl-phenyl)-3,4-dihydro-pyrazine-2-carboxylic acid methylamide], the IC50 is 0.33 nM.
Next, `Cc1c(-c2ccnn2-c2ccc(C#N)nc2)nc(C(=O)NC2CC2)c(=O)n1-c1cccc(C(F)(F)F)c1` [Example 12, 6-[1-(6-Cyanopyridin-3-yl)-1H-pyrazol-5-yl]-N-cyclopropyl-5-methyl-3-oxo-4-[3-(trifluoromethyl)phenyl]-3,4-dihydropyrazine-2-carboxamide]: 1 nM.
For the compound `Cc1c(-c2ccnn2-c2ccc(C#N)cc2)nc(C(=O)NCC(=O)O)c(=O)n1-c1cccc(C(F)(F)F)c1` [Example 16, 2-[[6-[2-(4-Cyanophenyl)pyrazol-3-yl]-5-methyl-3-oxo-4-[3-(trifluoromethyl)phenyl]-3,4-dihydro-pyrazine-2-carbonyl]amino]acetic acid], the half-maximal inhibitory concentration (IC50) is 0.61 nM.

For the origin of these results see patent US8410114B2, “2-pyrazinone derivatives for the treatment of disease or condition in which inhibition of neutrophil elastase activity is beneficial” (AstraZeneca AB, priority 2006, dated 2013).
